Reference: patent US10993983B2, “Cyclic peptide epitopes and small-molecule mimics for inducing autophagy” (TRUSTEES OF TUFTS COLLEGE, priority 2016, dated 2021)
Bridges are numbered along the chain shown (N, C = ends). Where no end group is shown, it is not given here. [ ]: non-standard residue; d: D form. The star is where a group is joined. Pent4ynoyl = C#CCCC(=O)*

What was measured:
GFP-LC3 transgenic mice = experiment: GFP-LC3 puncta in muscle tissue of GFP-LC3 transgenic mice; type: in vivo; settings: i.p. injection, muscle tissue after 6 hours; Tat-11mer 15 mg/kg, D-(Tat-11mer) 15 mg/kg, DD5-o 15, 30 mg/kg
Experimental: To show whether Tat-11mer and DD5-o have similar in vivo activity, we tested their ability to induce autophagy in GFP-LC3 transgenic mice^59 as described.^10 Peptides were delivered via intraperitoneal injection, and after 6 hours, muscle tissue was collected. GFP-LC3 puncta were imaged in thin sections and counted by an observer blinded to experimental condition (FIG. 10, a,b).
HeLa/GFP-LC3 cells generated as previously shown,^10 treated with peptides for 3 hour as described above. […] After 6 h, mice were sacrificed and fixed by perfusion with 4% PFA in PBS. Tissues were fixed in 4% PFA overnight, 15% sucrose for 4 hours, and 30% sucrose overnight before frozen sections were prepared and used for fluorescence microscopy analysis as described.^16 GFP-LC3 puncta were quantified per 2500 μm^2 of tissue. Animal experiments were approved by the UTSW Institutional Animal Care Use Committee and performed in accordance with institutional guidelines.

HeLa-htt103Q cells = experiment: Htt aggregate assay; type: cell-based; settings: equimolar concentrations
Experimental: Along with proteasomal degradation, autophagy is the major pathway by which aggregated proteins are removed from the cytoplasm.
HeLa-htt103Q cells were cultured as described previously.^60 For the Htt103Q aggregate assay, cells were fixed with 2% PFA in PBS and CFP-positive aggregates […] were counted via fluorescence microscopy by an observer blinded to experimental condition.

LC3 = LC3 marker assay (LC3-I to LC3-II conversion immunoblot); type: cell-based; parameters: key: −: activity not reported; 0: decreased vs. WT; +: similar to WT; ++: modest increase vs. WT; +++: significant increase vs. WT; settings: second symbol; for Activity (μM) 10, LC3 assay activity: 10 μM; for Activity (μM) 30, LC3 assay activity: 30 μM; for Activity (μM) 50, LC3 assay activity: 50 μM; for Activity (μM) 100, LC3 assay activity: 100 μM; for Activity (μM) 30, starred cell, LC3 assay activity: Table 8, *Data taken at 20 instead of 30 μM
p62 = p62 degradation assay (p62/actin immunoblot); type: cell-based; parameters: key: −: activity not reported; 0: decreased vs. WT; +: similar to WT; ++: modest increase vs. WT; +++: significant increase vs. WT; settings: first symbol; for Activity (μM) 10, p62/actin assay activity: 10 μM; for Activity (μM) 30, p62/actin assay activity: 30 μM; for Activity (μM) 50, p62/actin assay activity: 50 μM; for Activity (μM) 100, p62/actin assay activity: 100 μM; for Activity (μM) 30, starred cell, p62/actin assay activity: Table 8, *Data taken at 20 instead of 30 μM
HeLa cells = experiment: Autophagy induction judged by p62 and LC3 immunoblots together; type: cell-based; parameters: key to Activity compared to wild-type WT / Activity (μM) 10, single symbol / Activity (μM) 30, single symbol / Activity (μM) 50, single symbol / Activity (μM) 100, single symbol: −: activity not reported; 0: decreased vs. WT; +: similar to WT; ++: modest increase vs. WT; +++: significant increase vs. WT; settings: for Activity (μM) 10, single symbol: 10 μM; for Activity (μM) 30, single symbol: 30 μM; for Activity (μM) 50, single symbol: 50 μM; for Activity (μM) 100, single symbol: 100 μM
Experimental: This 10-mer sequence was substituted with various thiol-containing amino acids at various positions, and then cross-linked with various linkers as described above (FIG. 5, a and FIG. 6).
Cells were treated with peptide in OPTI-MEM (Thermo Scientific) acidified with 0.15% (v/v) 6N HCl for 3 hour. Cells were rinsed with Dulbecco's phosphate buffered saline (PBS) and lysed in lysis buffer (20 mM HEPES, 150 mM NaCl, 1 mM EDTA, 1% Triton X-100, protease inhibitor cocktail (Roche) on ice for 1 hour. Cell lysates were centrifuged at 16,000 g for 10 min at 4° C. and analyzed by SDS-PAGE and transferred to PVDF membranes. The membranes were blocked 5% non-fat dry milk (NFDM) in PBST (PBS+0.05% Tween-20) for 1 hour, then incubated overnight at 4° C. with primary antibody in 5% NFDM in PBST. The blots were washed with PBST and incubated with HRP-conjugated secondary antibodies diluted in 5% NFDM in PBST for 1 hour at room temperature. Membranes were washed with PBST and visualized with SuperSignal West Pico Chemiluminescent Substrate (Thermo Scientific). Semi-quantitative results were obtained by noting the lowest concentration at which both p62 degradation and LC3-I to LC3-II conversion were observed.
(SEQ ID NO: 16)-Sequence. […] The N-terminus was capped with an acetyl group while the C terminus was capped with a —C(O)—NH2 group. The activity reported is a summation of results from both the p62 degradation assay and the LC3 marker assay.

[1] = 5 μM, Table 8, control compound T25
[2] = Table 4, control inactive Tat-Beclin mutant
[3] = Table 4, starred rows (asterisk not explained)

(pa)-VcNAcFHIWH (Pent4ynoyl-V[dC]NA[dC]FHIWH; linker 2-5 via ortho‑xylene (inferred); not fully specified (C-terminus); printed as (pa)-VcNAcFHIWH) [LL5-o, ortho-xylene linker; stereoisomer with two L-cysteines, negative control]
no effect: autophagy induction in vivo (GFP-LC3 puncta in muscle), result in words (GFP-LC3 transgenic mice)
no significant clearance of aggregates: clearance of htt103Q aggregates by control peptides (HeLa-htt103Q cells)

VCNATCHIWH [Compound 15]
0: Activity (μM) 10, single symbol (HeLa cells; Table 5)
++/++: Activity (μM) 10, LC3 assay activity (LC3; Table 6, control DMSO) | Activity (μM) 50, LC3 assay activity (LC3; Table 5, control compound T25) | Activity (μM) 10, p62/actin assay activity (p62; Table 6, control DMSO) | Activity (μM) 50, p62/actin assay activity (p62; Table 5, control compound T25)
+: Activity (μM) 30, LC3 assay activity (LC3; Table 6, control DMSO) | Activity (μM) 50, LC3 assay activity (LC3; Table 6, control DMSO) | Activity (μM) 100, LC3 assay activity (LC3; Table 6, control DMSO) | Activity (μM) 30, single symbol (HeLa cells; Table 5)
0/0: Activity (μM) 10, LC3 assay activity (LC3; Table 5, control compound T25) | Activity (μM) 10, p62/actin assay activity (p62; Table 5, control compound T25)
+++: Activity (μM) 30, p62/actin assay activity (p62; Table 6, control DMSO) | Activity (μM) 50, p62/actin assay activity (p62; Table 6, control DMSO) | Activity (μM) 100, p62/actin assay activity (p62; Table 6, control DMSO) | Activity (μM) 50, single symbol (HeLa cells; Table 5) | Activity (μM) 100, single symbol (HeLa cells; Table 5)
+++/+++: Activity (μM) 100, LC3 assay activity (LC3; Table 5, control compound T25) | Activity (μM) 100, p62/actin assay activity (p62; Table 5, control compound T25)
+/+: Activity (μM) 30, LC3 assay activity (LC3; Table 5, control compound T25) | Activity (μM) 30, p62/actin assay activity (p62; Table 5, control compound T25)

VCNATCHIWH [Compound 16]
++: Activity (μM) 10, LC3 assay activity (LC3; Table 5, control compound T25) | Activity (μM) 30, LC3 assay activity (LC3; Table 5, control compound T25) | Activity (μM) 50, LC3 assay activity (LC3; Table 5, control compound T25) | Activity (μM) 100, LC3 assay activity (LC3; Table 5, control compound T25) | Activity (μM) 10, p62/actin assay activity (p62; Table 6, control DMSO) | Activity (μM) 50, single symbol (HeLa cells; Table 5) | Activity (μM) 100, single symbol (HeLa cells; Table 5)
0: Activity (μM) 10, p62/actin assay activity (p62; Table 5, control compound T25) | Activity (μM) 30, p62/actin assay activity (p62; Table 5, control compound T25) | Activity (μM) 50, p62/actin assay activity (p62; Table 5, control compound T25) | Activity (μM) 100, p62/actin assay activity (p62; Table 5, control compound T25) | Activity (μM) 10, single symbol (HeLa cells; Table 5)
+++: Activity (μM) 30, p62/actin assay activity (p62; Table 6, control DMSO) | Activity (μM) 50, p62/actin assay activity (p62; Table 6, control DMSO) | Activity (μM) 100, p62/actin assay activity (p62; Table 6, control DMSO)
+: Activity (μM) 10, LC3 assay activity (LC3; Table 6, control DMSO) | Activity (μM) 30, LC3 assay activity (LC3; Table 6, control DMSO) | Activity (μM) 50, LC3 assay activity (LC3; Table 6, control DMSO) | Activity (μM) 100, LC3 assay activity (LC3; Table 6, control DMSO) | Activity (μM) 30, single symbol (HeLa cells; Table 5)

VCNATCHIWH [Compound 17]
+++: Activity (μM) 10, LC3 assay activity (LC3; Table 8, control compound T25) | Activity (μM) 10, p62/actin assay activity (p62; Table 5, control compound T25) | Activity (μM) 30, p62/actin assay activity (p62; Table 6, control DMSO) | Activity (μM) 50, p62/actin assay activity (p62; Table 6, control DMSO) | Activity (μM) 100, p62/actin assay activity (p62; Table 6, control DMSO) | Activity (μM) 50, single symbol (HeLa cells; Table 5) | Activity (μM) 100, single symbol (HeLa cells; Table 5)
0: Activity (μM) 10, LC3 assay activity (LC3; Table 5, control compound T25) | Activity (μM) 30, LC3 assay activity (LC3; Table 5, control compound T25) | Activity (μM) 100, LC3 assay activity (LC3; Table 5, control compound T25) | Activity (μM) 10, single symbol (HeLa cells; Table 5)
++: Activity (μM) 10, LC3 assay activity (LC3; Table 6, control DMSO) | Activity (μM) 30, LC3 assay activity (LC3; Table 6, control DMSO) | Activity (μM) 50, LC3 assay activity (LC3; Table 6, control DMSO) | Activity (μM) 10, p62/actin assay activity (p62; Table 8, control compound T25) | Activity (μM) 30, p62/actin assay activity (p62; Table 5, control compound T25) | Activity (μM) 50, p62/actin assay activity (p62; Table 5, control compound T25) | Activity (μM) 100, p62/actin assay activity (p62; Table 5, control compound T25) | Activity (μM) 30, single symbol (HeLa cells; Table 5)
+++/+++*: Activity (μM) 30, starred cell, LC3 assay activity (LC3) | Activity (μM) 30, starred cell, p62/actin assay activity (p62)
+: Activity (μM) 50, LC3 assay activity (LC3; Table 5, control compound T25) | Activity (μM) 100, LC3 assay activity (LC3; Table 6, control DMSO) | Activity (μM) 10, p62/actin assay activity (p62; Table 6, control DMSO)

VFNATFEIWH [Compound T25]
+++: Activity (μM) 5, LC3 assay activity (LC3; [1]) | Activity (μM) 10, LC3 assay activity (LC3; Table 8, control compound T25) | Activity (μM) 30, single symbol (HeLa cells; Table 7, one symbol only)
+++/+++*: Activity (μM) 30, starred cell, LC3 assay activity (LC3) | Activity (μM) 30, starred cell, p62/actin assay activity (p62)
++: Activity (μM) 5, p62/actin assay activity (p62; [1]) | Activity (μM) 10, p62/actin assay activity (p62; Table 8, control compound T25) | Activity compared to wild-type WT (HeLa cells; Tat-linked linear peptides, summation of p62 degradation assay and LC3 marker assay)

YGRKKRRQRRR (Human immunodeficiency virus) [Tat, HIV-1 Tat protein transduction domain, reference compound]
0/0: Activity (μM) 10, LC3 assay activity (LC3; [2]) | Activity (μM) 30, LC3 assay activity (LC3; [2]) | Activity (μM) 100, LC3 assay activity (LC3; [2]) | Activity (μM) 10, p62/actin assay activity (p62; [2]) | Activity (μM) 30, p62/actin assay activity (p62; [2]) | Activity (μM) 100, p62/actin assay activity (p62; [2])
+: Activity (μM) 50, LC3 assay activity (LC3; [2])
0: Activity (μM) 50, p62/actin assay activity (p62; [2]) | Activity (μM) 10, single symbol (HeLa cells; [3]) | Activity (μM) 30, single symbol (HeLa cells; [3]) | Activity (μM) 50, single symbol (HeLa cells; [3]) | Activity (μM) 100, single symbol (HeLa cells; [3])
